# Source: patent publication US7511059B2, “Thiazolidinones, their production and use as pharmaceutical agents” (Schering Ag, priority 2005, dated 2009)
# What was measured:
# Recombinant human Plk-1 = target: T1, Recombinant human Plk-1 (Homo sapiens, UniProt P53350); test: PLK Enzyme Assay; format: biochemical; details: biotinylated casein and 33P-γ-ATP as substrate, 90 minutes at room temperature, read-out: PLK-1 IC50 [nM] Inhibition
# T1 construct: 6xHis; made in house; host or cells: baculovirus-infected Hi5 insect cells
# T1 sequence (P53350 whole entry): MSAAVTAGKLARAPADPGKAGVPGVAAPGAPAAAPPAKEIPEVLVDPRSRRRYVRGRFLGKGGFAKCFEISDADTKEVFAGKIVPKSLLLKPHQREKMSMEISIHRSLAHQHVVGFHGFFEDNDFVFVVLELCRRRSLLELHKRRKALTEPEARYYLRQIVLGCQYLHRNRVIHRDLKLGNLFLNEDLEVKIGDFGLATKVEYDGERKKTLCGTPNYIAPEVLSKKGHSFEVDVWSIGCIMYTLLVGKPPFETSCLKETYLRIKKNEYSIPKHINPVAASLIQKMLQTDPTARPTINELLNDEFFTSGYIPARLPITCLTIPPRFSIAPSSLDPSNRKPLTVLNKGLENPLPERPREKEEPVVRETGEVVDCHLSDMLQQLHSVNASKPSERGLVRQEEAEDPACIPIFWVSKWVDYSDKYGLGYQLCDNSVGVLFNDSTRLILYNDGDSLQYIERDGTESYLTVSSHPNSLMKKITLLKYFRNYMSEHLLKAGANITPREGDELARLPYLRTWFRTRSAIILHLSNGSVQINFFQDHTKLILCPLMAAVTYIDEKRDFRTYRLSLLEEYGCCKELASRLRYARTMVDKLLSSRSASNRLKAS
# Description: Recombinant human Plk-1 (6× His) was purified from baculovirus-infected insect cells (Hi5).
# 10 ng of (produced in a recombinant manner and purified) PLK enzyme is incubated for 90 minutes at room temperature with biotinylated casein and 33P-γ-ATP as a substrate in a volume of 15 μl in 384-well Greiner small-volume microtiter plates (final concentrations in the buffer: 660 ng/ml of PLK; 0.7 lmol of casein, 0.5 gmol of ATP incl. 400 nCi/ml of 33P-γ-ATP; 10 mmol of MgCl2, 1 mmol of MnCl2; 0.01% NP40; 1 mmol of DTT, protease inhibitors; 0.1 mmol of Na2VO3 in 50 mmol of HEPES, pH 7.5). To complete the reaction, 5 μl of stop solution (500 μmol of ATP; 500 mmol of EDTA; 1% Triton X100; 100 mg/ml of streptavidin-coated SPA beads in PBS) is added. After the microtiter plate is sealed by film, the beads are sedimented by centrifuging (10 minutes, 1500 rpm). The incorporation of 33P-γ-ATP in casein is intended as a measurement of enzyme activity by β-counting.
# Test substances are used in various concentrations (0 μmol, as well as in the range of 0.01-30 μmol). The final concentration of the solvent dimethyl sulfoxide is 1.5% in all batches.
# [1] = tested on: human MaTu breast tumor cells; test: Proliferation Assay; format: cell-based; details: 96 h, incubated 4 days, crystal violet, read-out: Inhibition of the Tumor Cell Proliferation (MaTu) IC50
# Description: Cultivated human MaTu breast tumor cells were flattened out at a density of 5000 cells/measuring point in a 96-well multititer plate in 200 μl of the corresponding growth medium. After 24 hours, the cells of one plate (zero-point plate) were colored with crystal violet (see below), while the medium of the other plates was replaced by fresh culture medium (200 μl), to which the test substances were added at various concentrations (0 μm, as well as in the range of 0.01-30 μm; the final concentration of the solvent dimethyl sulfoxide was 0.5%). The cells were incubated for 4 days in the presence of test substances. The cell proliferation was determined by coloring the cells with crystal violet: the cells were fixed by adding 20 μl/measuring point of an 11% glutaric aldehyde solution for 15 minutes at room temperature. After three washing cycles of the fixed cells with water, the plates were dried at room temperature. The cells were colored by adding 100 μl/measuring point of a 0. 1% crystal violet solution (pH was set at 3 by adding acetic acid). After three washing cycles of the colored cells with water, the plates were dried at room temperature. The dye was dissolved by adding 100 μl/measuring point of a 10% acetic acid solution. The extinction was determined by photometry at a wavelength of 595 nm. The change of cell growth, in percent, was calculated by standardization of the measured values to the extinction values of the zero-point plate (=0%) and the extinction of the untreated (0 μm) cells (=100%).
IC50 (Recombinant human Plk-1) [nM],IC50 [1] [µM],Structure (SMILES)
53,1.2,"CCn1c(=C(C#N)C2=N[C@H]3CCC[C@H]3O2)sc(=CNc2cccc(NC(=O)C(C)(C)O)c2)c1=O (mixture of isomers) [Example 31, N-(3-{[2-[(3aS,6aR)-1-Cyano-1-4,5,6,6a-tetrahydro-3aH-cyclopentaoxazol-2-yl-meth-(E or Z)-ylidene]-3-ethyl-4-oxo-thiazolidin-(5-(E/Z))-ylidenemethyl]-amino}-phenyl)-2-hydroxy-2-methyl-propionamide]"
69,3.6,"CCn1c(=C(C#N)C2=NC(C)(C)CO2)sc(=CNc2cccc(NC(=O)COCCOC)n2)c1=O (mixture of isomers) [Example 37, N-(6-{[2-[1-Cyano-1-(4,4-dimethyl-4,5-dihydro-oxazol-2-yl)-meth-(E or Z)-ylidene]-3-ethyl-4-oxo-thiazolidin-(5-(E/Z))-ylidenemethyl]-amino}-pyridin-2-yl)-2-(2-methoxy-ethoxy)-acetamide]"
24,1.2,"CCNc1cc(NC=c2sc(=C(C#N)C3=N[C@H]4CCC[C@H]4O3)n(CC)c2=O)ccn1 (mixture of isomers) [Example 38, [3-Ethyl-5-[1-(2-ethylamino-pyridin-4-ylamino)-meth-(E/Z)-ylidene]-4-oxo-thiazolidin-(2-(E or Z))-ylidene]-(3aS,6aR)-4,5,6,6a-tetrahydro-3aH-cyclopentaoxazol-2-yl-acetonitrile]"

# The remaining lines, values behind:
Structure (SMILES),IC50 (Recombinant human Plk-1) [nM],IC50 [1] [µM]
"CCn1c(=C(C#N)C2=NCC(C)O2)sc(=CNc2cccc(NC(=O)C(C)(C)C)c2)c1=O (mixture of isomers) [Example 15, N-(3-{[2-[1-Cyano-1-(5-methyl-4,5-dihydro-oxazol-2-yl)-meth-(E or Z)-ylidene]-3-ethyl-4-oxo-thiazolidin-(5-(E/Z))-ylidenemethyl]-amino}-phenyl)-2,2-dimethyl-propionamide]",55,2.1
"CCn1c(=C(C#N)C2=N[C@@H](C)CO2)sc(=CNc2cccc(NC(=O)C(C)(C)C)c2)c1=O [Example 20, N-(3-{[2-[1-Cyano-1-((S)-4-methyl-4,5-dihydro-oxazol-2-yl)-meth-(E or Z)-ylidene]-3-ethyl-4-oxo-thiazolidin-(5-(E/Z))-ylidenemethyl]-amino-phenyl)-2,2-dimethyl-propionamide]",140,3.2
